Measurements as given in publication PMC11951083, “Highly Specific Miniaturized Fluorescent Monoacylglycerol Lipase Probes Enable Translational Research” (Journal of the American Chemical Society, 2025).

Key:
GR (h) = biological target: T1, GR (h) (Homo sapiens, UniProt P04150); experiment: GR (h) (agonist radioligand); settings: read-out: Inhibition GR (h) (agonist radioligand)
T1 sequence (P04150 1-777): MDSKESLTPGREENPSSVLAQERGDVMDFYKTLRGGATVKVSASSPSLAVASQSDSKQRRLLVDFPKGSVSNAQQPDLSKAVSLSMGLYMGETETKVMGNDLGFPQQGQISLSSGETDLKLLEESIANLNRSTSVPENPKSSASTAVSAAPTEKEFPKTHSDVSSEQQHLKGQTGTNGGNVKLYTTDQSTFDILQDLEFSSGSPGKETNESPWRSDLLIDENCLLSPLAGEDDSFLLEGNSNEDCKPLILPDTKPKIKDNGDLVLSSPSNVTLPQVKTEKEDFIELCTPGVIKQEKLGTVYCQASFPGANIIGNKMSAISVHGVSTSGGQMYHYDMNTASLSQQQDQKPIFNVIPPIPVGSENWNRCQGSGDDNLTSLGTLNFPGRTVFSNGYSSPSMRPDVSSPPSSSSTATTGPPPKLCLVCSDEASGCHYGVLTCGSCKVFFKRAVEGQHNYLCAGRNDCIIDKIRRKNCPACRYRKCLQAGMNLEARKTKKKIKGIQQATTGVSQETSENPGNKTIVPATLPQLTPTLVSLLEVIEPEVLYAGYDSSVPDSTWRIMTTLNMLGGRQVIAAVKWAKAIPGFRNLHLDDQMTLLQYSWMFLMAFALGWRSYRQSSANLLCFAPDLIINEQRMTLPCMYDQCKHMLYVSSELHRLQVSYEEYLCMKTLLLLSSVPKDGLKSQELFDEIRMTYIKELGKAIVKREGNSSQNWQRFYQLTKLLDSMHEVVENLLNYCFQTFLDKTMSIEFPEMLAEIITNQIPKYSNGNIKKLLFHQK

D1 (h) = D1 (h) (Homo sapiens, UniProt P21728); experiment: D1 (h) (antagonist radioligand); settings: read-out: Inhibition D1 (h) (antagonist radioligand)
M2 (h) = biological target: T2, M2 (h) (Homo sapiens, UniProt P08172); experiment: M2 (h) (antagonist radioligand); settings: read-out: Inhibition M2 (h) (antagonist radioligand)
T2 sequence (P08172 1-466): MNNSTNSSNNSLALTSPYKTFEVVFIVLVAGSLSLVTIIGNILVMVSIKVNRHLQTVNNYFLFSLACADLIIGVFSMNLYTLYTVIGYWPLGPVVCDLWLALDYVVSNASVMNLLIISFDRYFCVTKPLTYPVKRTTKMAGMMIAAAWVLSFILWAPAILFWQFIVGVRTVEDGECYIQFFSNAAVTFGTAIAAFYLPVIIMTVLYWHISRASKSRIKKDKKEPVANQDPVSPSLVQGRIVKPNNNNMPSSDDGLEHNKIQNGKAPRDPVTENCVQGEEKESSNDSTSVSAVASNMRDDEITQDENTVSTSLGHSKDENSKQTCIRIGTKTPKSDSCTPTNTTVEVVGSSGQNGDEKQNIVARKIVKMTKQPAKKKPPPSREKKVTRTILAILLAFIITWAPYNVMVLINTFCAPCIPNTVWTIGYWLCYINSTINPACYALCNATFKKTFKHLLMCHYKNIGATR

H1 (h) = H1 (h) (Homo sapiens, UniProt P35367); experiment: H1 (h) (antagonist radioligand); settings: read-out: Inhibition H1 (h) (antagonist radioligand)
CCK1 (CCKA) (h) = biological target: T3, CCK1 (CCKA) (h) (Homo sapiens, UniProt P32238); experiment: CCK1 (CCKA) (h) (agonist radioligand); settings: read-out: Inhibition CCK1 (CCKA) (h) (agonist radioligand)
T3 sequence (P32238 1-428): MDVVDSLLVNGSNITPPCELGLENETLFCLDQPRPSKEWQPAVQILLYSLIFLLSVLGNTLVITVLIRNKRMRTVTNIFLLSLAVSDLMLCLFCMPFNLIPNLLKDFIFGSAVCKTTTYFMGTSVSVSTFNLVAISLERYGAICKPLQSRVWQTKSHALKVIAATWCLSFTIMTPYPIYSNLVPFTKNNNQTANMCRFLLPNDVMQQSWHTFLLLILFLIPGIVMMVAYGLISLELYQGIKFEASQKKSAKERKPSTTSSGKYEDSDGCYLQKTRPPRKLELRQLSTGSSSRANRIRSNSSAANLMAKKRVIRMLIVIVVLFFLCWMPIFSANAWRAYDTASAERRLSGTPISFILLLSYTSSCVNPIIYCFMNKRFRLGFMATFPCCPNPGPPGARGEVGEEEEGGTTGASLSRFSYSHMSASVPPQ

[1] = biological target: norepinephrine transporter (h) (Homo sapiens, UniProt P23975); experiment: norepinephrine transporter (h) (antagonist radioligand); settings: read-out: Inhibition norepinephrine transporter (h) (antagonist radioligand)
[2] = system: Ca2+ channel (L, diltiazem site); experiment: Ca2+ channel (L, diltiazem site) (antagonist radioligand); settings: 10 µM

Sequence of D1 (h) (P21728 whole entry): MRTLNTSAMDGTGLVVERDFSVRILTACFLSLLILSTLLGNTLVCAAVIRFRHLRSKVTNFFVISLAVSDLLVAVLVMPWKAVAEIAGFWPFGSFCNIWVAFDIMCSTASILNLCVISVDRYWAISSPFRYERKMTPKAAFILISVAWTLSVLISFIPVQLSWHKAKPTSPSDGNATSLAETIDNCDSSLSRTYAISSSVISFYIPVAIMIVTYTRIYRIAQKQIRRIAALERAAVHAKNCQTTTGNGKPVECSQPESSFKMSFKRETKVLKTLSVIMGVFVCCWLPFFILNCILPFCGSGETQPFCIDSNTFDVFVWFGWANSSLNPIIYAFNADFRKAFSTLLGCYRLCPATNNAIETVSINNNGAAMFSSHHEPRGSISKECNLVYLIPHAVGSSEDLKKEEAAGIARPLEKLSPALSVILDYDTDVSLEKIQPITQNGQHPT
Sequence of norepinephrine transporter (h) (P23975 whole entry): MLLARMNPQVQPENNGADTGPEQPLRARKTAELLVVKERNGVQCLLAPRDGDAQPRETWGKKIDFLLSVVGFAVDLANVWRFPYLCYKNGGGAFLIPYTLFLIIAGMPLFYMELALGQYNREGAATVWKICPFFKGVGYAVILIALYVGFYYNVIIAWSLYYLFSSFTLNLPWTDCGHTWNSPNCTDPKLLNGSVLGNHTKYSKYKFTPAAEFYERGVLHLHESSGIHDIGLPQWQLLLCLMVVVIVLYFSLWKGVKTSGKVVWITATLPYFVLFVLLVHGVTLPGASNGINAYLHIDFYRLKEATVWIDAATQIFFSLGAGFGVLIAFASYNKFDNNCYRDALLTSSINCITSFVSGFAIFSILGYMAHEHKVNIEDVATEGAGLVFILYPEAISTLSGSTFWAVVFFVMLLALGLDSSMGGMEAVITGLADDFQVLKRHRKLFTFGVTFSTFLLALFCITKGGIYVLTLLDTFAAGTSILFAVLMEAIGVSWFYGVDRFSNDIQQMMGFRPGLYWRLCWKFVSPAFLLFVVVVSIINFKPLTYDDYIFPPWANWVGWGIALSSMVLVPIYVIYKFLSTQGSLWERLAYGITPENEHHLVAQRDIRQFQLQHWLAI
Sequence of H1 (h) (P35367 whole entry): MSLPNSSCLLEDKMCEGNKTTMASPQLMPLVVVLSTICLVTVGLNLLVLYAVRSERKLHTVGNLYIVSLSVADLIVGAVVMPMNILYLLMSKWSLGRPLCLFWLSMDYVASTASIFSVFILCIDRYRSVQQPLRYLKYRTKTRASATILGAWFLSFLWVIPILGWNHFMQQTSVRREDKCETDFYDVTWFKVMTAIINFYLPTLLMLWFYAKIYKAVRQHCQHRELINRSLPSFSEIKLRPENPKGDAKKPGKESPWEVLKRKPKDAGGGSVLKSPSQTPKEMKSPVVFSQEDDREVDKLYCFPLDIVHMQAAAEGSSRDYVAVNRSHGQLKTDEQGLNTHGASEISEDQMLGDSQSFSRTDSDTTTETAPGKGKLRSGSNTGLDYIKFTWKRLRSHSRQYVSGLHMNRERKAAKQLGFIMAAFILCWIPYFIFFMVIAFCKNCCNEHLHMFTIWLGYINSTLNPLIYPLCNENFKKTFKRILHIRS

O=C(O[C@H](CO)C(F)(F)F)N1CC2(CC(CC3=C4C=CC=[N+]4[B-](F)(F)n4cccc43)C2)C1 [Compound 1]
inhibition at 10 µM (GR (h)): 13.9% | inhibition at 10 µM (D1 (h)): 8.1% | inhibition at 10 µM (M2 (h)): 35.1% | inhibition at 10 µM (H1 (h)): 30.4% | inhibition at 10 µM (CCK1 (CCKA) (h)): -3.8% | inhibition at 10 µM [1]: 7.4% | Inhibition Ca2+ channel (L, diltiazem site) (antagonist radioligand) [2]: 20,60%

O=C(OC(C(F)(F)F)C(F)(F)F)N1CC2(CC(CC3=C4C=CC=[N+]4[B-](F)(F)n4cccc43)C2)C1 [Compound 2]
inhibition at 10 µM (GR (h)): 9.1% | inhibition at 10 µM (D1 (h)): -1.2% | inhibition at 10 µM (M2 (h)): 22.2% | inhibition at 10 µM (H1 (h)): 5.5% | inhibition at 10 µM (CCK1 (CCKA) (h)): -8.8% | inhibition at 10 µM [1]: -0.5% | Inhibition Ca2+ channel (L, diltiazem site) (antagonist radioligand) [2]: -14,00%

O=C(OC(C(F)(F)F)C(F)(F)F)N1CC2(CC(CC3=C4C=CC(c5ccc[nH]5)=[N+]4[B-](F)(F)n4cccc43)C2)C1 [Compound 2a]
inhibition at 10 µM (GR (h)): 26.3% | inhibition at 10 µM (D1 (h)): 6.1% | inhibition at 10 µM (M2 (h)): -13.1% | inhibition at 10 µM (H1 (h)): 4.4% | inhibition at 10 µM (CCK1 (CCKA) (h)): 11.9% | inhibition at 10 µM [1]: 6.3% | Inhibition Ca2+ channel (L, diltiazem site) (antagonist radioligand) [2]: 9,70%

O=C1CO[C@H]2CCN(C(=O)N3CC4(CC(CC5=C6C=CC(c7ccc[nH]7)=[N+]6[B-](F)(F)n6cccc65)C4)C3)C[C@H]2N1 [Compound 4a]
inhibition at 10 µM (GR (h)): 48.1% | inhibition at 10 µM (D1 (h)): 7.5% | inhibition at 10 µM (M2 (h)): -4.9% | inhibition at 10 µM (H1 (h)): 1.3% | inhibition at 10 µM (CCK1 (CCKA) (h)): -22.1% | inhibition at 10 µM [1]: 12.2% | Inhibition Ca2+ channel (L, diltiazem site) (antagonist radioligand) [2]: 6,20%

O=C(N1CC2(CC(CC3=C4C=CC=[N+]4[B-](F)(F)n4cccc43)C2)C1)N1CC2(CC(n3cnc(C4CC4)n3)C2)C1 [Compound 5]
inhibition at 10 µM (GR (h)): 17.1% | inhibition at 10 µM (D1 (h)): 7.3% | inhibition at 10 µM (M2 (h)): 33.2% | inhibition at 10 µM (H1 (h)): 51.5% | inhibition at 10 µM (CCK1 (CCKA) (h)): -24.7% | inhibition at 10 µM [1]: 8.6% | Inhibition Ca2+ channel (L, diltiazem site) (antagonist radioligand) [2]: 1,70%
